Test results taken from ChEMBL document CHEMBL3259776, “Discovery and optimization of indazoles as potent and selective interleukin-2 inducible T cell kinase (ITK) inhibitors” (Bioorg Med Chem Lett, 2014).

Assays:
[1] = molecular target: T1, Tyrosine-protein kinase ITK/TSK (Homo sapiens, UniProt Q08881)
T1 sequence (Q08881 whole entry): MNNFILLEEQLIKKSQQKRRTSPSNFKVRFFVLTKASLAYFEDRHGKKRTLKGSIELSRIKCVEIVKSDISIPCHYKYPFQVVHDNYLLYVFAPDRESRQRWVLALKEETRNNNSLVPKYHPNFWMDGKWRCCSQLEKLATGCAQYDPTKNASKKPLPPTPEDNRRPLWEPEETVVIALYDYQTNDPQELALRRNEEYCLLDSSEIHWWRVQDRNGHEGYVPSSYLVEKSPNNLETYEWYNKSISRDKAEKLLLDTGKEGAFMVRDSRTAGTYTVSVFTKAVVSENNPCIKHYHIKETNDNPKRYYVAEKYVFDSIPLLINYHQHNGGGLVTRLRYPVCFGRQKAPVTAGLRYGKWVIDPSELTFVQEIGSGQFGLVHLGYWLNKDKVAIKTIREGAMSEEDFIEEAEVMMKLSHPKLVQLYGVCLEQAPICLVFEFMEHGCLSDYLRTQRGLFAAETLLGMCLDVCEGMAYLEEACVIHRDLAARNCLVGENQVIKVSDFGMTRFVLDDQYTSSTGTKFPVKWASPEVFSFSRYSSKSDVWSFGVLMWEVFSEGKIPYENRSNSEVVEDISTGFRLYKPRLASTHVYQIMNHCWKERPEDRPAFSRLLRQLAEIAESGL

[2] = AUC in rat at 1 mg/kg, iv; assay type: ADME, organism-based; set-up: dose 1 mg/kg, route intravenous; conditions: plasma
[3] = Half life in rat at 1 mg/kg, iv; assay type: ADME, organism-based; set-up: dose 1 mg/kg, route intravenous; conditions: in vivo
[4] = Clearance in rat at 1 mg/kg, iv; assay type: ADME, organism-based; set-up: dose 1 mg/kg, route intravenous; conditions: in vivo
[5] = Oral bioavailability in rat at 5 mg/kg; assay type: ADME, organism-based; conditions: in vivo
[6] = Lipophilicity, log D of the compound at pH 7.4; conditions: buffer
[7] = Half life in rat at 5 mg/kg, po; assay type: ADME, organism-based; set-up: dose 5 mg/kg, route oral; conditions: in vivo

Ki [1] | AUC [2] | half-life [3] | clearance [4] | bioavailability [5] | logD [6] | half-life [7] | Structure (SMILES)
> 4 nM |  |  |  |  |  |  | O=C(Nc1ncc(Cc2ccccc2)s1)c1n[nH]c2ccccc12
> 4 nM |  |  |  |  |  |  | O=C(Nc1ncc(Cc2ccccc2)o1)c1n[nH]c2ccccc12
 | 0.837 µM·h | 5.7 h | 44 mL/min/kg | 0% |  |  | CN(C)CC[C@@H](c1ccccc1)n1cc(NC(=O)c2n[nH]c3cc(-c4cn[nH]c4)ccc23)cn1
 | 2.5 µM·h | 1.8 h | 11 mL/min/kg | 9% | 3.4 | 2.6 h | CC(C)(O)[C@@H](c1ccccc1)n1cc(NC(=O)c2n[nH]c3cc(-c4cn[nH]c4)ccc23)cn1
